Experimental data: patent publication US5814631A, “Quinazoline derivatives and applications thereof” (Suntory Limited, priority 1995, dated 1998)

Molecular target: T1, human heart chymase (Homo sapiens, UniProt P23946)
T1 sequence (P23946 22-247): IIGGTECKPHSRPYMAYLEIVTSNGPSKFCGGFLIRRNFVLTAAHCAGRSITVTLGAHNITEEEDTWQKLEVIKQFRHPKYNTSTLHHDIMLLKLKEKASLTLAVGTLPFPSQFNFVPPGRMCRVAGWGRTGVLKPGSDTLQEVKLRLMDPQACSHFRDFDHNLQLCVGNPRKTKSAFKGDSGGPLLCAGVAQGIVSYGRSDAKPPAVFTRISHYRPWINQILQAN
Test: biochemical
Conditions: Chymase inhibitive activity (IC50), Ang I substrate, 37° C., 30 min, pH 7.5
Method: That is, to 10 μl of a 20 mM trisphosphate buffer (pH 7.5) containing 2MKCl were added 10 μl of purified chymase and 5 μl of a dimethylsulfoxide (hereinafter referred to as DMSO) solution of the test sample. The mixture was preincubated at 37° C. for 10 minutes, then 25 μl of a 1 mM Ang I solution was added and the mixture preincubated at 37° C. for 30 minutes. Next, 50 μl of 30% acetic acid was added to stop the enzymatic reaction. At the same time, a blind test was performed by adding, instead of the test sample solution, 5 μl of DMSO and performing the same reaction.
The reacted solution was subjected to high performance liquid chromatography using Develosil ODS-5 (made by Nomura Kagaku, .phi.4.6 mm×150 mm) and developed at a flow rate of 2.0 ml/min in 0.05% TFA by a straight concentration gradient raising the acetonitrile from 0% to 60% over 10 minutes. This was monitored by the absorbance at 210 nm and the peaks identified by comparison with standard samples of Ang I and Ang II. The peak areas were measured by an integrating meter to quantitatively analyze the Ang I and Ang II and calculate the chymase activity.

| SMILES | IC50 [nM] |
| --- | --- |
| O=C(Cn1c(=O)n(S(=O)(=O)c2ccc(Cl)cc2)c(=O)c2ccc(Cl)cc21)Nc1ccc(C(=O)O)cc1 [Example 43, [7-chloro-3-(4-chlorobenzenesulfonyl)-2,4(1H,3H)-quinazolinedion-1-yl]-N-(4-carboxyphenyl)-acetamide] | 420 |
| O=C(Cn1c(=O)n(S(=O)(=O)c2ccc(Cl)cc2)c(=O)c2ccc(Cl)cc21)NCc1ccccc1 [Example 80, [7-chloro-3-(4-chlorobenzenesulfonyl)-2,4(1H,3H)-quinazolinedion-1-yl]-N-benzylacetamide] | 140 |
| C[n+]1ccc(NC(=O)Cn2c(=O)n(S(=O)(=O)c3ccc(Cl)cc3)c(=O)c3ccc(Cl)cc32)cc1 [Example 58, 4-{[7-chloro-3-(4-chlorobenzenesulfonyl)-2,4(1H,3H)-quinazolinedion-1-yl]acetylamino}-N-methylpyridinium iodide] | 130 |
| CC(C)(C)OC(=O)C[n+]1cccc(NC(=O)Cn2c(=O)n(S(=O)(=O)c3ccc(Cl)cc3)c(=O)c3ccc(Cl)cc32)c1 [Example 83, 3-{[7-chloro-3-(4-chlorobenzenesulfonyl)-2,4(1H,3H)-quinazolinedion-1-yl]acetylamino}-(N-t-butoxycarbonylmethylpyridinium) bromide] | 38 |
| CC[n+]1cccc(NC(=O)Cn2c(=O)n(S(=O)(=O)c3ccc(OC)cc3)c(=O)c3ccc(Cl)cc32)c1 [Example 90] | 130 |
| N#Cc1cccc(Cn2c(=O)n(S(=O)(=O)c3ccc(Cl)cc3)c(=O)c3ccc(Cl)cc32)c1 [Example 61, 7-chloro-3-(4-chlorobenzenesulfonyl)-1-(3-cyanobenzyl)-2,4(1H,3H)-quinazolinedione] | 160 |
| O=C(Nc1cccnc1)c1cccc(Cn2c(=O)n(S(=O)(=O)c3ccc(Cl)cc3)c(=O)c3ccc(Cl)cc32)c1 [Example 68, 7-chloro-3-(4-chlorobenzenesulfonyl)-1-(3-(3-pyridyl)aminocarbonyl-benzyl)-2,4(1H,3H)-quinazolinedione] | 110 |
| O=C(Cn1c(=O)n(S(=O)(=O)c2ccc(Cl)cc2)c(=O)c2ccc(Cl)cc21)Nc1ccc(N2CCNCC2)cc1 [Example 93, [7-chloro-3-(4-chlorobenzenesulfonyl)-2,4(1H,3H)-quinazolinedion-1-yl]-N-(4-piperazin-1-yl)acetamide] | 390 |
| Nc1ccccc1Cn1c(=O)n(S(=O)(=O)c2ccc(Cl)cc2)c(=O)c2ccc(Cl)cc21 [Example 75, 1-(2-aminobenzyl)-7-chloro-3-(4-chlorobenzenesulfonyl)-2,4(1H,3H)-quinazolinedione] | 180 |
| O=C(Cn1c(=O)n(S(=O)(=O)c2ccc(Cl)cc2)c(=O)c2ccc(Cl)cc21)Nc1ccncc1 [Example 54, [7-chloro-3-(4-chlorobenzenesulfonyl)-2,4(1H,3H)-quinazolinedion-1-yl]-N-(4-pyridyl)acetamide] | 34 |
| O=C(Cn1c(=O)n(S(=O)(=O)c2ccc(Cl)cc2)c(=O)c2ccc(Cl)cc21)NCc1ccncc1 [Example 81, [7-chloro-3-(4-chlorobenzenesulfonyl)-2,4 (1H,3H)-quinazolinedion-1-yl]-N-(4-picolyl)acetamide] | 220 |
| O=C(Cn1c(=O)n(S(=O)(=O)c2ccc(Cl)cc2)c(=O)c2ccc(Cl)cc21)Nc1ccc(O)cc1 [Example 39, [7-chloro-3-(4-chlorobenzenesulfonyl)-2,4(1H,3H)-quinazolinedion-1-yl]-N-(4-hydroxyphenyl)acetamide] | 65 |
| O=C(Cn1c(=O)n(S(=O)(=O)c2ccc(Cl)cc2)c(=O)c2ccc(Cl)cc21)Nc1ccncn1 [Example 85, [7-chloro-3-(4-chlorobenzenesulfonyl)-2,4(1H,3H)-quinazolinedion-1-yl]-N-(4-pyrimidinyl)acetamide] | 190 |
| N#Cc1ccc(Cn2c(=O)n(S(=O)(=O)c3ccc(Cl)cc3)c(=O)c3ccc(Cl)cc32)cc1 [Example 60, 7-chloro-3-(4-chlorobenzenesulfonyl)-1-(4-cyanobenzyl)-2,4(1H,3H)-quinazolinedione] | 340 |
| O=C(Cn1c(=O)n(S(=O)(=O)c2ccc(Cl)cc2)c(=O)c2ccc(Cl)cc21)Nc1ccc2[nH]ccc2c1 [Example 82, [7-chloro-3-(4-chlorobenzenesulfonyl)-2,4(1h,3H)-quinazolinedion-1-yl]-N-(5-indolyl)acetamide] | 51 |
| N[C@@H](CC(=O)NCc1ccc(NC(=O)Cn2c(=O)n(S(=O)(=O)c3ccc(Cl)cc3)c(=O)c3ccc(Cl)cc32)cc1)C(=O)O [Example 50, [7-chloro-3-(4-chlorobenzenesulfonyl)-2,4(1H,3H)-quinazolinedion-1-yl]-N-(4-β-L-aspartylaminomethylphenyl)acetamide] | 330 |

Other lines, results leading:

| IC50 [nM] | SMILES |
| --- | --- |
| 60 | O=C(Cn1c(=O)n(S(=O)(=O)c2ccc(Cl)cc2)c(=O)c2ccc(Cl)cc21)Nc1ccc(Cl)cc1 [Example 140, [7-chloro-3-(4-chlorobenzenesulfonyl)-2,4(1H,3H)-quinazolinedion-1-yl]-N-(4-chlorophenyl)acetamide] |
| 1500 | O=c1[nH]c2cc(Cl)ccc2c(=O)n1S(=O)(=O)c1ccc(OCCBr)cc1 [Example 145, 7-chloro-3-[4-(2-bromoethyloxy)benzenesulfonyl]-2,4(1H,3H)-quinazolinedione] |
| 340 | O=C(Cn1c(=O)n(S(=O)(=O)c2ccc(-c3cc[nH]n3)cc2)c(=O)c2ccc(Cl)cc21)Nc1cccnc1 [Example 121, {7-chloro-3-[4-(3-pyrazolyl)benzenesulfonyl]-2,4(1H,3H)-quinazolinedion-1-yl}-N-(3-pyridlyl)acetamide] |
| 210 | CC[n+]1cccc(NC(=O)Cn2c(=O)n(S(=O)(=O)c3ccc(C)cc3)c(=O)c3ccc(Cl)cc32)c1 [Example 95, 3-{7-chloro-[3-(4-methylbenzene-sulfonyl)-3-(4-methoxybenzenesulfonyl)-2,4(1H,3H)-quinazolinedion-1-yl]acetylamino}-N-ethylpyridinium iodide] |
| 46 | O=c1c2ccc(Cl)cc2n(Cc2cccnc2)c(=O)n1S(=O)(=O)c1ccc(Cl)cc1 [Example 114, 7-chloro-3-(4-chlorobenzenesulfonyl)-1-(3-pyridylmethyl)-2,4(1H,3H)-quinazolinedione] |
| 1300 | O=C(Cn1c(=O)n(S(=O)(=O)c2ccc(Cl)cc2)c(=O)c2ccc(Cl)cc21)c1ccccc1 [Example 108, 7-chloro-3-(4-chlorobenzenesulfonyl)-1-phenacyl-2,4(1H,3H)-quinazolinedione] |
| 460 | O=c1[nH]c2cc(Cl)ccc2c(=O)n1S(=O)(=O)c1ccc(C(F)(F)F)cc1 [Example 136, 7-chloro-3-(4-trifluoromethylbenzenesulfonyl)-2,4(1H,3H)-quinazolinedione] |
| 130 | O=C(O)CCCOc1ccc(NC(=O)Cn2c(=O)n(S(=O)(=O)c3ccc(Cl)cc3)c(=O)c3ccc(Cl)cc32)cc1 [Example 111, [7-chloro-3-(4-chlorobenzenesulfonyl)-2,4(1H,3H)-quinazolinedion-1-yl]-N-(4-(3-carboxylpropyloxy)phenyl)acetamide] |
| 240 | O=c1c2ccc(Cl)cc2n(COCc2ccccc2)c(=O)n1S(=O)(=O)c1ccc(Cl)cc1 [Example 109, 1-(benzyloxymethyl)-7-chloro-3-(4-chlorobenzenesulfonyl)-2,4(1H,3H)-quinazolinedione] |
| 570 | CC(=O)c1ccc(S(=O)(=O)n2c(=O)[nH]c3cc(Cl)ccc3c2=O)cc1 [Example 149, 3-(4-acetylbenzenesulfonyl)-7-chloro-2,4(1H,3H)-quinazolinedione] |
